Literature values as cited in patent US11033509B2 (BIOGEN MA INC., priority 2016, dated 2021).
Counter-ions that a name gives are not always drawn.

Settings: DMF absorbed in vivo and converted to MMF

half-life of MMF: approximately 1 hour
Structure (SMILES): COC(=O)/C=C/C(=O)O [MMF, monomethyl fumarate]
